Experimental data reported in the NIST ThermoML archive (doi:10.1016/j.tca.2017.03.027).
± gives the expanded uncertainty stated by the source.

Columns and labels:
[1] = Molar enthalpy of transition or fusion; conditions: Crystal; DSC
[2] = Crystal; DTA

Row | SMILES | Molar enthalpy of transition or fusion [1] [kcal/mol] | Normal melting temperature [2] [°C]
1 | CCCCCCCCCC(=O)O [decanoic acid] | 6.86 ± 0.311 | 31.10 ± 4
2 | CCCCCCCCCCCCCC(=O)O [tetradecanoic acid] | 10.2 ± 0.454 | 53.70 ± 4
3 | CCCCCCCCCCCCCCCCCC(=O)O [octadecanoic acid] | 15.1 ± 0.669 | 69.00 ± 4
